Source: US20260232666A1, “COMPOSITIONS AND METHODS FOR INHIBITION OF RAS” (TheRas, Inc., priority 2023, published 2026)

Key:
[1] = target: T1, GTP-loaded KRAS4b (amino acids 1-169) G12C/C118S protein (Homo sapiens, UniProt P01116, C118S/G12C); assay: Covalent cysteine 12 modification by MALDI-TOF MS, GTP-loaded KRAS G12C; assay type: binding; settings: 15 minutes reaction time point
T1 construct: KRAS4b (amino acids 1-169) G12C/C118S protein; made in house
Description: (§1) Biological Example 1: Covalent Cysteine 12 Modification Analysis Using Matrix Assisted Laser Desorption Ionization-Time of Flight Mass Spectrometry (MALDI-TOF MS)
(§2) MALDI-TOF MS analysis was performed using 1 μM protein (KRAS G12C), and 1:2.5 protein to compound ratio.
(§3) Reaction: 1 μM of GppNHp, GTP, or GDP-loaded KRAS4b (amino acids 1-169) G12C/C118S protein (produced in-house by Protein Expression Laboratory, FNLCR/Leidos Biomed) in 20 mM 4-(2-hydroxyethyl)-1-piperazineethanesulfonic acid (HEPES) buffer containing 150 mM NaCl, 1 mM MgCl2, pH 7.3 was prepared freshly before assay. Twelve-μL aliquots of protein were dispensed onto low volume 384-well plate, then 30 nL of tested compounds from 1 mM DMSO stocks were added to appropriate wells using ECHO 555 acoustic liquid handler (Labcyte Inc.). For each reaction/assay, three blanks were prepared by mixing 12 μL of protein solution with 30 nL DMSO. The contents of the wells were carefully mixed by aspiration, and then each plate was sealed with an adhesive cover, centrifuged at 2000 g for 1 minute, and kept in the dark at room temperature until 5 min, 15 min, 30 min, 2 h, or 6 h collections.
(§4) Target pretreatment: Before each assay MALDI target (Bruker MPT 384 ground steel BC) was pre-treated by pipetting on each spot 0.75 μL of saturated sinapinic acid in acetonitrile (ACN).
(§5) Sample preparation: At collection time point, 2 μL of reaction mixtures were pipetted out into 15 μL MALDI matrix solution (saturated solution of sinapinic acid in 1:1 ACN:water solution containing 0.75% trifluoroacetic acid (TFA)) deposited on 384 well polypropylene plate. Resulting solution was mixed by aspiration, centrifuged at 2000 g for 1 minute, then 1.5 μL aliquots were dispensed on pre-treated MALDI target using Beckman Coulter Biomek FXP 96/384-Span-8 Laboratory Automation Workstation. Finally, the MALDI target was dried under mild vacuum to produce spots with fine crystalline structure.
(§6) Measurements: MALDI-TOF measurements were performed on a Bruker Daltonics rapiflex Tissuetyper TOF-TOF mass spectrometer using linear mode and mass range from 18.6 to 21.6 kDa. Detector gain was set to 3.3×(483 V), sample rate to 5 GS/s, real time smoothing to medium (175 MHz), laser smart beam pattern was set to: “MS Thin Layer M5”, and the laser frequency was 10000 Hz. Spectra were automatically collected using custom AutoXecute method. Laser power was auto adjusted using fuzzy control. The peak selection range was set to be between 19000 and 21500 Da. Peak evaluation uses half width parameter set to be smaller than 40 Da for processed spectrograms (centroid peak detection; smoothed by SavitzkyGolay algorithm using 7 m/z width and 2 cycles; baseline was subtracted using median algorithm with flatness 1 and median level 0.01). Fuzzy control used Proteins/Oligonucleotides protocol with minimum half width 1/10 times above threshold. Up to 40000 satisfactory shots were collected in 10000 shot steps. Dynamic termination was implemented to finish data collection when peak signal/noise ratio was reaching value of 50.
(§7) Spectra processing: Spectra were smoothed by SavitzkyGolay algorithm using 7 m/z width and three cycles. Centroid peak detection algorithm was used with signal to noise threshold set to 6, relative intensity threshold 4%, peak width 10 m/z and median baseline subtraction using flatness of 1 and median level of 0.01. Peak intensity and area under the peak were evaluated and recorded for all peaks between 19,300 Da and 21,550 Da.
(§8) Calculation of percent modification: Percent modification was calculated as a ratio of peak height for protein modified by compound to sum of peak height of remaining protein plus peak height for protein modified by compound. If multiple modifications were observed each was calculated as a ratio of peak height for given modification versus sum of peak heights for all observed protein species. Data reported in Table 4 are from 15 minutes reaction time point. […]

[2] = system: pERK in NCI-H358 cells; assay: Cell-based pERK HTRF assay (pERK inhibition in H358 cells); settings: 30 min incubation
Description: Biological Example 3: Cell-Based pERK HTRF Assay
pERK assays (Perkin Elmer) were used to determine the effectiveness of compounds of the present disclosure in disrupting KRAS G12C protein/effector signaling in cells.
On Day 1, cells (NCI-H358) were seeded into 96-well plates at 4×10^4 cells/well in complete growth media (RPMI, 10% FBS).
On Day 2, cells were treated with compounds at 0.25% DMSO. The source plate was created with compounds diluted in media at 5-fold the final assay concentration. The compounds were run in a 9-point concentration curve starting at 75 μM, with a 3-fold dilution between concentrations. 20 μL was transferred onto the cell plates (final volume in wells was 100 μL). Plates were harvested after 30 min incubation by aspirating media and adding kit-supplied 1× supplemented lysis buffer to all wells (75 μl per well). Plates were then placed on a plate shaker and incubated at 850 rpm for an additional 30 min.
Antibody mixture solution was prepared by diluting aliquoted d2 and Eu Cryptate antibodies 1:20 in kit supplied detection buffer, then mixed the diluted antibodies solutions (1:1 v:v). 4 μL of this solution was then added to a 384-well detection plate (Perkin Elmer; 6008230).
Samples were homogenized by pipetting up and down and then transferred (16 μL of cell lysates) from the 96-well cell culture plate to two wells of the HTRF 384-well detection plate containing the antibody solution. Plates were centrifuged (524 g for […]) and allowed to incubate between 4 and 24 h at room temperature. Maximum signal is reached after 4 h incubation time and remains stable over a period of 24 hours. Therefore, readings can be made between 4 and 24 h of incubation. Plates were centrifuged again (524 g for 1 min), and analyzed on the En Vision plate reader using the following settings: Excitation 320 nm, Bandwidth 75 nm; Emission 615 nm, Bandwidth 85 nm; Gain 100%; Flashes 100; Lag 60 μs.
The percent of modification of GppNHp, GTP, or GDP loaded KRAS G12C by MALDI-TOF MS, biochemical Raf1 RBD-KRAS G12C-GppNHp disruption assay IC50, and pERK inhibition IC50 of selected compounds described herein are shown in Table 4. For percent of modification at 15 minutes (MALDI-TOF MS) of GppNHp, GTP, or GDP loaded KRAS G12C: A: percent of modification ≥70%; B: 50≤percent of modification <70%; C: 10%≤percent of modification <50%; D: percent of modification <10%. […] For pERK inhibition in H358 cell assay: A: IC50≤0.1 μM; B: 0.1 μM<IC50≤1 μM; C: IC50>1 μM. Blanks in the table represent that compound was not tested in the indicated assay.

[3] = target: T2, GppNHp-loaded KRAS4b (amino acids 1-169) G12C/C118S protein (Homo sapiens, UniProt P01116, C118S/G12C); assay: Covalent cysteine 12 modification by MALDI-TOF MS, GppNHp-loaded KRAS G12C; assay type: binding; settings: 15 minutes reaction time point
T2 construct: KRAS4b (amino acids 1-169) G12C/C118S protein; made in house
Description: as §1, §2, §3, §4, §5, §6, §7, §8

[4] = target: T3, GDP-loaded KRAS4b (amino acids 1-169) G12C/C118S protein (Homo sapiens, UniProt P01116, C118S/G12C); assay: Covalent cysteine 12 modification by MALDI-TOF MS, GDP-loaded KRAS G12C; assay type: binding; settings: 15 minutes reaction time point
T3 construct: KRAS4b (amino acids 1-169) G12C/C118S protein; made in house
Description: as §1, §2, §3, §4, §5, §6, §7, §8

Structure (SMILES)	GTP-KRAS G12C percent of modification [1]	IC50 [2]	GppNHp-KRAS G12C percent of modification [3]	GDP-KRAS G12C percent of modification [4]	IC50 ([2]; Homo sapiens, NCI-H358, 0.5 h)
C=CC(=O)N1CC[C@@H](N(C)c2nc(OC[C@@H]3C(=C(F)F)CCN3C)nc3c(F)c(-c4ccc(F)c5sc(N)c(C#N)c45)c(Cl)cc23)[C@H]1C [Compound 198]	B (50≤percent of modification <70%)		B (50≤percent of modification <70%)	B (50≤percent of modification <70%)	< 100 nM
C=CC(=O)N1C[C@H](C)N(c2nc(OC[C@]34CCCN3C[C@@H](F)C4)nc3c(F)c(-c4ccc(F)c5sc(N)c(C#N)c45)c(C(F)(F)F)cc23)C[C@H]1C [Compound 26]			B (50≤percent of modification <70%)	C (10%≤percent of modification <50%)	
C=CC(=O)N1CC[C@@H](N(CC)c2nc(OC[C@@]34CCCN3C[C@H](F)C4)nc3cc(-c4ccc(F)c5sc(N)c(C#N)c45)c(F)cc23)[C@H]1C [Compound 21, 4-(4-(((2R,3R)-1-acryloyl-2-methylpyrrolidin-3-yl)(ethyl)amino)-6-fluoro-2-(((2R,7aS)-2-fluorotetrahydro-1H-pyrrolizin-7a(5H)-yl)methoxy)quinazolin-7-yl)-2-amino-7-fluorobenzo[b]thiophene-3-carbonitrile]	A (percent of modification ≥70%)		A (percent of modification ≥70%)	A (percent of modification ≥70%)	
C=CC(=O)N1CC[C@@H](N(C)c2nc(OC[C@@]34CCCN3C[C@H](F)C4)nc3c(F)c(-c4ccc(F)c5sc(N)c(C#N)c45)c(Cl)cc23)[C@H]1C (atropisomer, axis not shown) [Compound 51]	A (percent of modification ≥70%)		A (percent of modification ≥70%)		
C=CC(=O)N1CC[C@@H](N(C)c2nc(OC[C@@]34CCCN3C[C@H](F)C4)nc3c(F)c(-c4ccc(F)c5sc(N)c(C#N)c45)ccc23)[C@H]1C [Compound 13]	A (percent of modification ≥70%)		A (percent of modification ≥70%)	A (percent of modification ≥70%)	

Now from value to compound:

GTP-KRAS G12C percent of modification [1]	IC50 [2]	GppNHp-KRAS G12C percent of modification [3]	GDP-KRAS G12C percent of modification [4]	IC50 ([2]; Homo sapiens, NCI-H358, 0.5 h)	Structure (SMILES)
A (percent of modification ≥70%)	< 100 nM	A (percent of modification ≥70%)	A (percent of modification ≥70%)		C[C@@H]1[C@H](N(C)c2nc(OC[C@@]34CCCN3C[C@H](F)C4)nc3c(F)c(-c4ccc(F)c5sc(N)c(C#N)c45)c(C(F)(F)F)cc23)CCN1C(=O)[C@H](F)Cl (atropisomer, axis not shown; (aS)) [Compound 183, 2-amino-4-((S)-4-(((2R,3R)-1-((R)-2-chloro-2-fluoroacetyl)-2-methylpyrrolidin-3-yl)(methyl)amino)-8-fluoro-2-(((2R,7aS)-2-fluorotetrahydro-1H-pyrrolizin-7a(5H)-yl)methoxy)-6-(trifluoromethyl)quinazolin-7-yl)-7-fluorobenzo[b]thiophene-3-carbonitrile]
A (percent of modification ≥70%)	< 100 nM	A (percent of modification ≥70%)	A (percent of modification ≥70%)		C[C@@H]1[C@H](N(C)c2nc(OC[C@@]34CCCN3C[C@H](F)C4)nc3c(F)c(-c4ccc(F)c5sc(N)c(C#N)c45)c(C(F)(F)F)cc23)CCN1C(=O)[C@@H](F)Cl (atropisomer, axis not shown) [Compound 185]
A (percent of modification ≥70%)		A (percent of modification ≥70%)	A (percent of modification ≥70%)		C=CC(=O)N1CC[C@@H](N(C)c2nc(O[C@@H](C)[C@@H]3C[C@@H](OC)CN3C)nc3c(F)c(-c4ccc(F)c5sc(N)c(C#N)c45)c(C(F)(F)F)cc23)[C@H]1C [Compound 192]
C (10%≤percent of modification <50%)		B (50≤percent of modification <70%)	C (10%≤percent of modification <50%)	< 100 nM	CCN(c1nc(OC[C@@H]2C[C@@H](OC)CN2C)nc2c(F)c(-c3ccc(F)c4sc(N)c(C#N)c34)c(C(F)(F)F)cc12)[C@@H]1CCN(C(=O)[C@H](F)Cl)[C@@H]1C [Compound 179]
B (50≤percent of modification <70%)		A (percent of modification ≥70%)		< 100 nM	C=CC(=O)N1CC[C@@H](N(CC)c2nc(OC[C@@]34CCCN3C[C@H](F)C4)nc3c(F)c(-c4ccc(F)c5sc(N)c(C#N)c45)c(Cl)cc23)[C@H]1C [Compound 85]
A (percent of modification ≥70%)		A (percent of modification ≥70%)	A (percent of modification ≥70%)		C=CC(=O)N1CC[C@@H](N(C)c2nc(OC[C@@]34CCCN3C[C@H](F)C4)nc3c(F)c(-c4ccc(F)c5sc(N)c(C#N)c45)c(C(F)(F)F)cc23)[C@@H]1C (atropisomer, axis not shown) [Compound 70]
